Reference: ChEMBL document CHEMBL3217555, “Potent and selective inhibitors of human peptidylglycine -amidating monooxygenase” (Medchemcomm, 2011)
Where a SMILES comes first, the peptide text is derived from it.

Tests used:
[1] = (§1) Competitive binding affinity to Xenopus laevis PAM using (R)-Tyr-(S)-ValGly as substrate after 1 hr by HPLC analysis
[2] = biological target: T1, Peptidyl-glycine alpha-amidating monooxygenase (Homo sapiens, UniProt P19021); experiment: (§2) Competitive binding affinity to PAM extracted from human H889 cells using (R)-Tyr-(S)-ValGly as substrate after 2 hrs by HPLC analysis
T1 sequence (P19021 whole entry): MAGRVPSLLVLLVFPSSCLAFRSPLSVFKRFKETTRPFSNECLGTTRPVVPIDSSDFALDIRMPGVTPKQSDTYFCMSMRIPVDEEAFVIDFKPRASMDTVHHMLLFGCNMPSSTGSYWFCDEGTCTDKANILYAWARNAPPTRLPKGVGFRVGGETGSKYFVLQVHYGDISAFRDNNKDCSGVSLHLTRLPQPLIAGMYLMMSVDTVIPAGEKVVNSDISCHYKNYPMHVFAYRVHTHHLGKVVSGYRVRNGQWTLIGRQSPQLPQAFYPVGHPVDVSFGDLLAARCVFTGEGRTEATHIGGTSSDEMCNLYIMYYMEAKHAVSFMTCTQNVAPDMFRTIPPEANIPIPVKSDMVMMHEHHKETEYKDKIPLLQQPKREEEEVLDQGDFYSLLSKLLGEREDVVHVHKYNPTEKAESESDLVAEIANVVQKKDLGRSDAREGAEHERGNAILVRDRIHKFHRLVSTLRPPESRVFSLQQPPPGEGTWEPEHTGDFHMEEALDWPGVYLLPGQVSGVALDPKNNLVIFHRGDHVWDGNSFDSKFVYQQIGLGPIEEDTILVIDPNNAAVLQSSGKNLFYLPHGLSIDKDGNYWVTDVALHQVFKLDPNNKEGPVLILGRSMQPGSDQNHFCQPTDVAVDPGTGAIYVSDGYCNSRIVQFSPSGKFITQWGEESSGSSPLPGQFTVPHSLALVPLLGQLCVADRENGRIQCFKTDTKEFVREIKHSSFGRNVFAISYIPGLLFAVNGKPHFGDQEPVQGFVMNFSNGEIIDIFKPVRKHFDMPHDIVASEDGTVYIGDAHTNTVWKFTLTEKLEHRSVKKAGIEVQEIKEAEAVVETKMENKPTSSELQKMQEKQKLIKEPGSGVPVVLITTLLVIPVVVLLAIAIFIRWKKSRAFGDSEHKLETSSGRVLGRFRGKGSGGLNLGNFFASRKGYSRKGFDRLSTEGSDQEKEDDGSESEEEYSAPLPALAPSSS

[3] = biological target: T1, Peptidyl-glycine alpha-amidating monooxygenase; experiment: Competitive binding affinity to PAM extracted from human DMS53 cells using (R)-Tyr-(S)-ValGly as substrate after 2 hrs by HPLC analysis; parameters: species or system DMS-53
[4] = biological target: T1, Peptidyl-glycine alpha-amidating monooxygenase; experiment: Competitive binding affinity to PAM secreted from human DMS53 cells using (R)-Tyr-(S)-ValGly as substrate after 2 hrs by HPLC analysis; parameters: species or system DMS-53
[5] = biological target: T1, Peptidyl-glycine alpha-amidating monooxygenase; experiment: Competitive binding affinity to PAM extracted from human PC3 cells using (R)-Tyr-(S)-ValGly as substrate after 2 hrs by HPLC analysis; parameters: species or system PC-3
[6] = biological target: T1, Peptidyl-glycine alpha-amidating monooxygenase; experiment: Competitive binding affinity to PAM secreted from human SW1783 cells using (R)-Tyr-(S)-ValGly as substrate after 2 hrs by HPLC analysis
H889 = experiment: Selectivity ratio of IC50 for Xenopus laevis PAM to IC50 for PAM extracted from human H889 cells; type: cell-based
[7] = biological target: T2, Peptidyl-glycine alpha-amidating monooxygenase (Homo sapiens) (UniProt P19021); experiment: Potency index, ratio of Procalcitonin Km(app) to compound IC50 for PAM extracted from human DMS53 cells; type: cell-based; conditions: DMS-53
T2 sequence (whole entry): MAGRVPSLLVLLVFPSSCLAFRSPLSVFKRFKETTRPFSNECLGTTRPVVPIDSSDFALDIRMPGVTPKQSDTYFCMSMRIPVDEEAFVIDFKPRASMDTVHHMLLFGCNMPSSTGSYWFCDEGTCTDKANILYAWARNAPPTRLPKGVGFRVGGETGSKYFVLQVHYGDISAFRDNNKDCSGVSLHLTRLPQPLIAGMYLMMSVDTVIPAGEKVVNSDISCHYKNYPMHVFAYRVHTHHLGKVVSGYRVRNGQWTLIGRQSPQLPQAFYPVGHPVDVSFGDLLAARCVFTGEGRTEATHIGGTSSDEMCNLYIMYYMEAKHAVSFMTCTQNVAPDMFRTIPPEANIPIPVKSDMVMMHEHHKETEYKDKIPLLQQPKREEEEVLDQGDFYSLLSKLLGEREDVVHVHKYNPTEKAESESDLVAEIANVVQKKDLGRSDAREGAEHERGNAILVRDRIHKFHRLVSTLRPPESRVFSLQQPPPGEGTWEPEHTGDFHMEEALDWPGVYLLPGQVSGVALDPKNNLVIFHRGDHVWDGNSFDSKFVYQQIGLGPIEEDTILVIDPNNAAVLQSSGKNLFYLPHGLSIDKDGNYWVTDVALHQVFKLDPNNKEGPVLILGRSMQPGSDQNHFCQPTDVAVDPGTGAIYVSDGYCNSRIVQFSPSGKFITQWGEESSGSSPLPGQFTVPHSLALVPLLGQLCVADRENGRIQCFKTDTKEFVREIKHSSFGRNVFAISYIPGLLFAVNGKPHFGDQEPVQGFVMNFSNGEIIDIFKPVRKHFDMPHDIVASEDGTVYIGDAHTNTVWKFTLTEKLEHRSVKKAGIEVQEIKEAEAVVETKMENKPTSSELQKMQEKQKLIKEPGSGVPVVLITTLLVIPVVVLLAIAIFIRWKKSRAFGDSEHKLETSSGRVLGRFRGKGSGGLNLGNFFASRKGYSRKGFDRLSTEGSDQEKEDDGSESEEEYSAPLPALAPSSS

[8] = biological target: T2, Peptidyl-glycine alpha-amidating monooxygenase (Homo sapiens); experiment: Potency index, ratio of Procalcitonin Km(app) to compound IC50 for PAM extracted from human H889 cells; type: cell-based
Xenopus laevis = species: Xenopus laevis; experiment: as §1
[9] = biological target: T1, Peptidyl-glycine alpha-amidating monooxygenase; experiment: Competitive inhibition of PAM secreted from human PC3 cells by Dixon plot analysis; type: cell-based, PC-3
[10] = substrate: CC(=O)N[C@@H](Cc1ccccc1)C(=O)NCC(=O)O; experiment: as §2
[11] = substrate: O=C(O)CNC(=O)Cc1ccccc1; experiment: as §2
[12] = biological target: Peptidyl-glycine alpha-amidating monooxygenase (Homo sapiens) (UniProt P19021); experiment: Competitive binding affinity to PAM extracted from human H889 cells using (R)-Tyr-(S)-ValGly as substrate after 2 hrs by HPLC analysis

For `CC(=O)N[C@@H](Cc1ccccc1)C(=O)SCC(=O)O`, which IC50 [1] is on record?
The IC50 was 25 µM.

And the IC50 [2]?
Its IC50 is 45 µM.

With `CCCCCCCCCC(=O)OCC(=O)O` as the molecule, how does the IC50 [1] read?
The IC50 was 40 µM.

And the IC50 [2]?
The IC50 was 0.05 µM.

What about the IC50 [3] of the same molecule?
The IC50 was 0.04 µM.

What about the IC50 [4] of the same molecule?
The IC50 was 30 µM.

What about the IC50 [5] of the same molecule?
Its IC50 is 0.12 µM.

What about the IC50 [6] of the same molecule?
Its IC50 is 30 µM.

What about the Ratio IC50 (H889) of the same molecule?
Its Ratio IC50 is 800.

And the Ratio [7]?
Its Ratio is 5000.

And the Ratio [8]?
The Ratio was 6000.

With `CCCCCCCCCC(=O)NCC(=O)O` as the molecule, how does the Km (Xenopus laevis) read?
Its Km is 440 µM.

What about the IC50 [3] of the same molecule?
The IC50 was 30 µM.

What about the IC50 [4] of the same molecule?
Its IC50 is 110 µM.

For `CCCCCCCCCCCCCC(=O)OCC(=O)O`, which IC50 [1] is on record?
The IC50 was 30 µM.

Which IC50 [1] does the source give for `CC(=O)N[C@@H](CC(C)C)C(=O)SCC(=O)O` here?
Its IC50 is 260 µM.

With `CC(=O)N[C@@H](Cc1ccccc1)C(=O)OCC(=O)O` as the molecule, how does the IC50 [1] read?
The IC50 was greater than 2000 µM.

Which Km (Xenopus laevis) does the source give for `CC(=O)N[C@@H](Cc1ccccc1)C(=O)NCC(=O)O` (Ac-Phe-Gly-OH) here?
The Km was 170 µM.

With `CCCCCCCCCCCC(=O)OCC(=O)O` as the molecule, how does the IC50 [1] read?
Its IC50 is 35 µM.

And the IC50 [2]?
The IC50 was 0.06 µM.

Which IC50 [1] does the source give for `CCCCCCCC(=O)OCC(=O)O` here?
The IC50 was 250 µM.

Which IC50 [1] does the source give for `O=C(O)COC(=O)c1ccccc1` here?
The IC50 was 250 µM.

Which IC50 [1] does the source give for `O=C(O)COC(=O)Cc1ccccc1` here?
Its IC50 is 510 µM.

And the IC50 [2]?
Its IC50 is 2 µM.

And the Ratio IC50 (H889)?
The Ratio IC50 was greater than 250.

For `O=C(O)CNC(=O)Cc1ccccc1`, which Km (Xenopus laevis) is on record?
Its Km is 440 µM.

Which IC50 [1] does the source give for `O=C(O)CSC(=O)Cc1ccccc1` here?
Its IC50 is 20 µM.

What about the IC50 [2] of the same molecule?
Its IC50 is 45 µM.

For `O=C(O)CSC(=O)c1ccccc1`, which IC50 [1] is on record?
The IC50 was 150 µM.

For `CCCCCCCCCC(=O)SCC(=O)O`, which IC50 [1] is on record?
Its IC50 is 9 µM.

Which Ki [9] does the source give for `O=C(O)C/C=C/c1ccccc1` here?
Its Ki is 0.096 µM.

For `CCCCCC(=O)OCC(=O)O`, which IC50 [1] is on record?
Its IC50 is 780 µM.

With `CSCC[C@H](NC(C)=O)C(=O)SCC(=O)O` as the molecule, how does the IC50 [1] read?
The IC50 was 50 µM.

B1: Peptidyl-glycine alpha-amidating monooxygenase (Homo sapiens), P19021 (protein)
chain: MAGRVPSLLVLLVFPSSCLAFRSPLSVFKRFKETTRPFSNECLGTTRPVVPIDSSDFALDIRMPGVTPKQSDTYFCMSMRIPVDEEAFVIDFKPRASMDTVHHMLLFGCNMPSSTGSYWFCDEGTCTDKANILYAWARNAPPTRLPKGVGFRVGGETGSKYFVLQVHYGDISAFRDNNKDCSGVSLHLTRLPQPLIAGMYLMMSVDTVIPAGEKVVNSDISCHYKNYPMHVFAYRVHTHHLGKVVSGYRVRNGQWTLIGRQSPQLPQAFYPVGHPVDVSFGDLLAARCVFTGEGRTEATHIGGTSSDEMCNLYIMYYMEAKHAVSFMTCTQNVAPDMFRTIPPEANIPIPVKSDMVMMHEHHKETEYKDKIPLLQQPKREEEEVLDQGDFYSLLSKLLGEREDVVHVHKYNPTEKAESESDLVAEIANVVQKKDLGRSDAREGAEHERGNAILVRDRIHKFHRLVSTLRPPESRVFSLQQPPPGEGTWEPEHTGDFHMEEALDWPGVYLLPGQVSGVALDPKNNLVIFHRGDHVWDGNSFDSKFVYQQIGLGPIEEDTILVIDPNNAAVLQSSGKNLFYLPHGLSIDKDGNYWVTDVALHQVFKLDPNNKEGPVLILGRSMQPGSDQNHFCQPTDVAVDPGTGAIYVSDGYCNSRIVQFSPSGKFITQWGEESSGSSPLPGQFTVPHSLALVPLLGQLCVADRENGRIQCFKTDTKEFVREIKHSSFGRNVFAISYIPGLLFAVNGKPHFGDQEPVQGFVMNFSNGEIIDIFKPVRKHFDMPHDIVASEDGTVYIGDAHTNTVWKFTLTEKLEHRSVKKAGIEVQEIKEAEAVVETKMENKPTSSELQKMQEKQKLIKEPGSGVPVVLITTLLVIPVVVLLAIAIFIRWKKSRAFGDSEHKLETSSGRVLGRFRGKGSGGLNLGNFFASRKGYSRKGFDRLSTEGSDQEKEDDGSESEEEYSAPLPALAPSSS
With B1 as the molecule, how does the Km [10] read?
Its Km is 15 µM.

And the Km [11]?
Its Km is 330 µM.

And the Km [12]?
The Km was 200 µM.
